*1 amine or outer side, *2 acyl side, *3 side chain or, on linkers, in order; H or OH if unused. Where a SMILES comes first, the peptide text is derived from it. Side-chain parts run from the residue outwards. The star is where a group is joined. C18 diacid = O=C(O)CCCCCCCCCCCCCCCCC(=O)*; γGlu = O=C(O)[C@H](CCC(=O)[*:2])N[*:1]; Isovaleryl = CC(C)CC(=O)*; Ahx = NCCCCCC(=O)O
What was measured:
[1] = target: T1, Human Neuropeptide Y2 Receptor (Homo sapiens, UniProt P49146); test: Radioligand binding competition assay (RLB); settings: Table 3, 125I-PYY(1-36) competition; read-out: Ki
T1 construct: purchased CHEMICON HTS066M
T1 sequence (P49146 1-381): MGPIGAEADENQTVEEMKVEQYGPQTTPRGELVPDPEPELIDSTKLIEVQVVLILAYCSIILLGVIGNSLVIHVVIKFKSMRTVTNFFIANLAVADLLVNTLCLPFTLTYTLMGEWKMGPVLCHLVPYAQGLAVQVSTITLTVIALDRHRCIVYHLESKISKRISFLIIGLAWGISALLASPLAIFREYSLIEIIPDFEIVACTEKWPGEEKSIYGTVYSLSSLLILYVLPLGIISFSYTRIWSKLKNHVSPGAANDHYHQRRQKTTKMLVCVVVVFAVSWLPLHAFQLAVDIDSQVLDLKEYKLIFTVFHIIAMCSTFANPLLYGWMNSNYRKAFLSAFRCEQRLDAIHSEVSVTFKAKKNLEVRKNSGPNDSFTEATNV
How it was run: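 Filtration competition binding on membranes from cells expressing the receptor, 0.5 μg protein/well, in 50 mM HEPES, 5 mM MgCl2, 1 mM CaCl2, pH 7.4, with 0.2% ovalbumin. Incubation ran 2 h at room temperature, followed by GF/C filtration and scintillation counting. IC50 came from nonlinear sigmoidal fits.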

Solubility determination = settings: for Sol6: pH 6; for Sol7: pH 7
How it was run: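 Solubility is derived from the ratio of reversed-phase peak areas, filtered sample over a control dissolved at 1 mg/ml in 50% acetonitrile. Peptides are agitated for 2 hours at room temperature in 0.1 M sodium diphosphate at pH 6.4 or 7.0, aiming at 10 mg/ml.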

Question: For `CC(C)CC(=O)N[C@@H](C)C(=O)N1CCC[C@H]1C(=O)N[C@@H](C)C(=O)N[C@@H](CCCCNC(=O)CCCCCNC(=O)CC[C@H](NC(=O)CCCCCCCCCCCCCCCCC(=O)O)C(=O)O)C(=O)N1CCC[C@H]1C(=O)N[C@@H](CCC(=O)O)C(=O)N[C@@H](CCC(=O)O)C(=O)N[C@@H](C)C(=O)N[C@@H](C)C(=O)N[C@H](C(=O)N1CCC[C@H]1C(=O)N[C@@H](CCC(=O)O)C(=O)N[C@@H](CCC(=O)O)C(=O)N[C@@H](CC(C)C)C(=O)N[C@@H](CCC(N)=O)C(=O)N[C@@H](CCCNC(=N)N)C(=O)N[C@@H](Cc1ccc(O)cc1)C(=O)N[C@@H](Cc1ccc(O)cc1)C(=O)N[C@H](C(=O)N[C@@H](CO)C(=O)N[C@@H](CC(C)C)C(=O)N[C@@H](CCCNC(=N)N)C(=O)N[C@@H](Cc1c[nH]cn1)C(=O)N[C@@H](Cc1ccc(O)cc1)C(=O)N[C@@H](Cc1ccc(O)cc1)C(=O)N[C@@H](CC(N)=O)C(=O)N[C@@H](Cc1c[nH]c2ccccc12)C(=O)N[C@@H](CC(C)C)C(=O)N[C@H](C(=O)N[C@@H](CCCNC(=N)N)C(=O)N[C@@H](CCC(N)=O)C(=O)N[C@@H](CCCNC(=N)N)C(=O)N[C@@H](Cc1ccc(O)cc1)C(N)=O)[C@@H](C)O)C(C)C)[C@@H](C)O` [Compound 35, N{alpha-4}-(3-methylbutanoyl)-N{epsilon-7}-(6-[(4S)-4-carboxy-4-(17-carboxyheptadecanamido)butanamido]hexanoyl)[4A,6A,7K,9E,11A,13T,18Q,22V,28Y,30W,31L]-hPYY(4-36)], which Ki [1] is on record?
Answer: 1.4 nM

Question: And the “Sol6” value (Solubility determination)?
Answer: 0.0 mg/mL

Question: And the “Sol7” value (Solubility determination)?
Answer: 2.4 mg/mL

Question: With `CC(C)CC(=O)N[C@@H](C)C(=O)N1CCC[C@H]1C(=O)N[C@@H](CCC(=O)O)C(=O)N[C@@H](CCCCNC(=O)CCCCCNC(=O)CC[C@H](NC(=O)CCCCCCCCCCCCCCCCC(=O)O)C(=O)O)C(=O)N1CCC[C@H]1C(=O)N[C@@H](CCC(=O)O)C(=O)N[C@@H](CCC(=O)O)C(=O)N[C@@H](CC(=O)O)C(=O)N[C@@H](C)C(=O)N[C@@H](CCC(=O)O)C(=O)N1CCC[C@H]1C(=O)N[C@@H](CCC(=O)O)C(=O)N[C@@H](CCC(=O)O)C(=O)N[C@@H](CC(C)C)C(=O)N[C@@H](CCC(N)=O)C(=O)N[C@@H](CCCNC(=N)N)C(=O)N[C@@H](Cc1ccc(O)cc1)C(=O)N[C@@H](Cc1ccc(O)cc1)C(=O)N[C@H](C(=O)N[C@@H](CO)C(=O)N[C@@H](CC(C)C)C(=O)N[C@@H](CCCNC(=N)N)C(=O)N[C@@H](Cc1c[nH]cn1)C(=O)N[C@@H](Cc1ccc(O)cc1)C(=O)N[C@@H](Cc1ccc(O)cc1)C(=O)N[C@@H](CCC(N)=O)C(=O)N[C@@H](Cc1c[nH]c2ccccc12)C(=O)N[C@@H](CC(C)C)C(=O)N[C@H](C(=O)N[C@@H](CCCNC(=N)N)C(=O)N[C@@H](CCC(N)=O)C(=O)N[C@@H](CCCNC(=N)N)C(=O)N[C@@H](Cc1ccc(O)cc1)C(N)=O)[C@@H](C)O)[C@@H](C)O` [Compound 41, N{alpha-4}-(3-methylbutanoyl)-N{epsilon-7}-(6-[(4S)-4-carboxy-4-(17-carboxyheptadecanamido)butanamido]hexanoyl)[4A,7K,9E,13E,18Q,22T,28Y,30W,31L]-hPYY(4-36)] (Isovaleryl-APEK([Ahx-γGlu-C18 diacid])PEEDAEPEELQRYYTSLRHYYQWLTRQRY-NH2) as the compound, how does the Ki [1] read?
Answer: 19.8 nM

Question: And the “Sol6” value (Solubility determination)?
Answer: 9.8 mg/mL

Question: What about the “Sol7” value (Solubility determination) of the same compound?
Answer: 10.0 mg/mL

Question: Which results are given for `CC(C)CC(=O)N[C@@H](C)C(=O)N1CCC[C@H]1C(=O)N[C@@H](CCC(=O)O)C(=O)N[C@@H](CCCCNC(=O)CCCCCNC(=O)CC[C@H](NC(=O)CCCCCCCCCCCCCCCCC(=O)O)C(=O)O)C(=O)N1CCC[C@H]1C(=O)N[C@@H](CCC(=O)O)C(=O)N[C@@H](CCC(=O)O)C(=O)N[C@@H](CC(=O)O)C(=O)N[C@@H](C)C(=O)N[C@H](C(=O)N1CCC[C@H]1C(=O)N[C@@H](CCC(=O)O)C(=O)N[C@@H](CCC(=O)O)C(=O)N[C@@H](CC(C)C)C(=O)N[C@@H](CCC(N)=O)C(=O)N[C@@H](C)C(=O)N[C@@H](Cc1ccc(O)cc1)C(=O)N[C@@H](Cc1ccc(O)cc1)C(=O)N[C@H](C(=O)N[C@@H](CO)C(=O)N[C@@H](CC(C)C)C(=O)N[C@@H](CCCNC(=N)N)C(=O)N[C@@H](Cc1c[nH]cn1)C(=O)N[C@@H](Cc1ccc(O)cc1)C(=O)N[C@@H](Cc1ccc(O)cc1)C(=O)N[C@@H](CC(N)=O)C(=O)N[C@@H](Cc1c[nH]c2ccccc12)C(=O)N[C@@H](CC(C)C)C(=O)N[C@H](C(=O)N[C@@H](CCCNC(=N)N)C(=O)N[C@@H](CCC(N)=O)C(=O)N[C@@H](CCCNC(=N)N)C(=O)N[C@@H](Cc1ccc(O)cc1)C(N)=O)[C@@H](C)O)C(C)C)[C@@H](C)O` [Compound 95, N{alpha-4}-(3-methylbutanoyl)-N{epsilon-7}-(6-[(4S)-4-carboxy-4-(17-carboxyheptadecanamido)butanamido]hexanoyl)-[4A,7K,9E,13T,18Q,19A,22V,28Y,30W,31L]-hPYY(4-36)]?
Answer: Ki [1]: 2.92 nM; Sol6 (Solubility determination): 8.9 mg/mL; Sol7 (Solubility determination): 7.9 mg/mL

Question: What does the source list for `CC(C)CC(=O)N[C@@H](C)C(=O)N1CCC[C@H]1C(=O)N[C@@H](C)C(=O)N[C@@H](CCCCNC(=O)CCCCCNC(=O)CC[C@H](NC(=O)CCCCCCCCCCCCCCCCC(=O)O)C(=O)O)C(=O)N1CCC[C@H]1C(=O)N[C@@H](CCC(=O)O)C(=O)N[C@@H](CCC(=O)O)C(=O)N[C@@H](CC(=O)O)C(=O)N[C@@H](C)C(=O)N[C@@H](CO)C(=O)N[C@@H](CCC(=O)O)C(=O)N[C@@H](CCC(=O)O)C(=O)N[C@@H](CCC(=O)O)C(=O)N[C@@H](CC(C)C)C(=O)N[C@@H](CCC(N)=O)C(=O)N[C@@H](CCCNC(=N)N)C(=O)N[C@@H](Cc1ccc(O)cc1)C(=O)N[C@@H](Cc1ccc(O)cc1)C(=O)N[C@H](C(=O)N[C@@H](CO)C(=O)N[C@@H](CC(C)C)C(=O)N[C@@H](CCCNC(=N)N)C(=O)N[C@@H](Cc1c[nH]cn1)C(=O)N[C@@H](Cc1ccc(O)cc1)C(=O)N[C@@H](Cc1ccc(O)cc1)C(=O)N[C@@H](CC(N)=O)C(=O)N[C@@H](Cc1c[nH]c2ccccc12)C(=O)N[C@@H](CC(C)C)C(=O)N[C@H](C(=O)N[C@@H](CCCNC(=N)N)C(=O)N[C@@H](CCC(N)=O)C(=O)N[C@@H](CCCNC(=N)N)C(=O)N[C@@H](Cc1ccc(O)cc1)C(N)=O)[C@@H](C)O)C(C)C` [Compound 185, N{alpha-4}-(3-methylbutanoyl)-N{epsilon-7}-(6-[(4S)-4-carboxy-4-(17-carboxyheptadecanamido)butanamido]hexanoyl)-[4A,6A,7K,9E,14E,18Q,22V,28Y,30W,31L]-hPYY(4-36)]?
Answer: Ki [1]: 2.06 nM; Sol6 (Solubility determination): 8.7 mg/mL; Sol7 (Solubility determination): 8.9 mg/mL
